Consider 32 compounds from patent publication US20100311748A1, “HETEROCYCLIC AMIDES USEFUL FOR THE TREATMENT OF CANCER AND PSORIASIS” (ASTRAZENECA AB, priority 2007, published 2010).

The term inhibition denotes the change of the read-out against control, counted positive when it falls. The low end stands for little suppression, the high end for strong suppression.

Each structure is given as a SMILES string.

The experiment has as its system Hedgehog pathway. Nature of the experiment: Hedgehog Pathway Cellular Differentiation Assay (alkaline phosphatase production in C3H10T1/2 cells with Shh ligand). Format: cell-based. To be noted: Mus musculus, C3H 10T1/2, 3 μM compound, Shh ligand conditioned media, 72 h, alkaline phosphatase. Here is the method:
Hedgehog Pathway Cellular Differentiation Assay The ability of compounds of the invention to inhibit the Hedgehog pathway can be determined by the following cell differentiation assay. C3H10T1/2 cells were plated into 384 well plates at a concentration of 5000 cells/well in DMEM/10% FBS. The following day the media was changed to 20% conditioned media (low serum media DMEM/2% FBS+Shh ligand). Compounds were solubilized in 100% DMSO to a concentration of 10 mM and then serially diluted three fold in 100% DMSO. The highest concentration in the cell plate was 30 μM and the lowest was 3 nM. The compounds were then added to the cells. Cell plates were incubated with the compound for 72 h and then assayed for alkaline phosphatase production using pNp as a substrate. Briefly, after 72 h of incubation, the media was aspirated from the cells and washed with 30 μl of PBS. PBS was aspirated off the cells and 15 μl of 1×RIPA cell lysis buffer is added on to the cells. The cell plates are then incubated at −80° C. for 30 minutes to insure proper cell lysis. The plates were then thawed back to RT. The substrate solution containing pNp at 1 mg/mL in diethanolamine buffer pH 9.8 was then added onto the lysed cells. The plates were incubated at 30° C. for color development and read at an absorbance of 405 nm. The percent inhibition and IC50 value was then calculated from the absorbance data using standard procedures.
Consider `Cc1cc(C)c(-c2ncc(C)n2C)cc1NC(=O)c1ccc(OCc2ccccn2)cc1` [Example 69, N-[5-(1,5-dimethyl-1H-imidazol-2-yl)-2,4-dimethylphenyl]-4-(pyridin-2-ylmethoxy)benzamide], for which testing at 3 µM gave an inhibition of 83.9%.

Take `Cc1cc(C)c(-c2cnc(C)n2C)cc1NC(=O)c1ccc(OCc2ccccn2)cc1` [Example 70, N-[5-(1,2-dimethyl-1H-imidazol-5-yl)-2,4-dimethylphenyl]-4-(pyridin-2-ylmethoxy)benzamide]: 3 µM produced 78.1% inhibition.

In the case of `Cc1cc(C)c(-c2cn(C)cn2)cc1NC(=O)c1ccc(OCc2ccccn2)cc1` [Example 71, N-[2,4-dimethyl-5-(1-methyl-1H-imidazol-4-yl)phenyl]-4-(pyridin-2-ylmethoxy)benzamide], testing at 3 µM gave an inhibition of 84.9%.

`Cc1cc(C)c(-c2cn(C)c(C)n2)cc1NC(=O)c1ccc(OCc2ccccn2)cc1` [Example 73, N-(5-(1,2-dimethyl-1H-imidazol-4-yl)-2,4-dimethylphenyl)-4-(pyridin-2-ylmethoxy)benzamide] displayed an inhibition at 3 µM of 85.8%.

In turn, `Cc1cc(Cl)c(-c2nccn2C)cc1NC(=O)c1ccc(OCc2ccccn2)cc1` [Example 74, N-[4-chloro-2-methyl-5-(1-methyl-1H-imidazol-2-yl)phenyl]-4-(pyridin-2-ylmethoxy)benzamide] displayed an inhibition at 3 µM of 76.2%.

The compound `Cc1cc(Cl)c(-c2cn(C)cn2)cc1NC(=O)c1ccc(OCc2ccccn2)cc1` [Example 75, N-[4-chloro-2-methyl-5-(1-methyl-1H-imidazol-4-yl)phenyl]-4-(pyridin-2-ylmethoxy)benzamide] registered an inhibition at 3 µM of 77.8%.

Consider `Cc1cc(Cl)c(-c2ncc[nH]2)cc1NC(=O)c1ccc(OCc2ccccn2)cc1` [Example 76, N-[4-chloro-5-(1H-imidazol-2-yl)-2-methylphenyl]-4-(pyridin-2-ylmethoxy)benzamide], for which 3 µM produced 77.6% inhibition.

`Cc1cc(Cl)c(-c2cn(C)c(C)n2)cc1NC(=O)c1ccc(OCc2ccccn2)cc1` [Example 77, N-[4-chloro-5-(1,2-dimethyl-1H-imidazol-4-yl)-2-methylphenyl]-4-(pyridin-2-ylmethoxy)benzamide]: the inhibition at 3 µM amounted to 86.1%.

In turn, `Cc1ccc(-c2ncn(C)c2CO)cc1NC(=O)c1ccc(OCc2ccccn2)cc1` [Example 78, N-{5-[5-(hydroxymethyl)-1-methyl-1H-imidazol-4-yl]-2-methylphenyl}-4-(pyridin-2-ylmethoxy)benzamide] gave an inhibition at 3 µM of 75.1%.

In turn, `Cc1cc(C)c(-c2ncn(C)c2CO)cc1NC(=O)c1ccc(OCc2ccccn2)cc1` [Example 79, N-(5-(5-(hydroxymethyl)-1-methyl-1H-imidazol-4-yl)-2,4-dimethylphenyl)-4-(pyridin-2-ylmethoxy)benzamide] showed an inhibition at 3 µM of 85.9%.

`CNCc1c(-c2ccc(C)c(NC(=O)c3ccc(OCc4ccccn4)cc3)c2)ncn1C` [Example 80, N-(2-methyl-5-{1-methyl-5-[(methylamino)methyl]-1H-imidazol-4-yl}phenyl)-4-(pyridin-2-ylmethoxy)benzamide] came in with an inhibition at 3 µM of 57.1%.

Compound `Cc1ccc(-c2nc(-c3ccccc3)c[nH]2)cc1NC(=O)c1ccc(OCc2ccccn2)cc1` [Example 81, N-[2-methyl-5-(4-phenyl-1H-imidazol-2-yl)phenyl]-4-(pyridin-2-ylmethoxy)benzamide] displayed an inhibition at 3 µM of 78.8%.

As to `Cc1ccc(-c2nc(-c3nccs3)c[nH]2)cc1NC(=O)c1ccc(OCc2ccccn2)cc1` [Example 82, N-{2-methyl-5-[4-(1,3-thiazol-2-yl)-1H-imidazol-2-yl]phenyl}-4-(pyridin-2-ylmethoxy)benzamide], testing at 3 µM gave an inhibition of 68.6%.

As to `Cc1ccc(-c2nc(-c3ccc(N4CCCC4)cc3)c[nH]2)cc1NC(=O)c1ccc(OCc2ccccn2)cc1` [Example 83, N-{2-methyl-5-[4-(4-pyrrolidin-1-ylphenyl)-1H-imidazol-2-yl]phenyl}-4-(pyridin-2-ylmethoxy)benzamide], testing at 3 µM gave an inhibition of 15.1%.

The compound `Cc1ccc(-c2nc(-c3cccnc3)c[nH]2)cc1NC(=O)c1ccc(OCc2ccccn2)cc1` [Example 84, N-[2-methyl-5-(4-pyridin-3-yl-1H-imidazol-2-yl)phenyl]-4-(pyridin-2-ylmethoxy)benzamide] showed an inhibition at 3 µM of 79.6%.

`CCc1c[nH]c(-c2ccc(C)c(NC(=O)c3ccc(OCc4ccccn4)cc3)c2)n1` [Example 85, N-[5-(4-ethyl-1H-imidazol-2-yl)-2-methylphenyl]-4-(pyridin-2-ylmethoxy)benzamide] came in with an inhibition at 3 µM of 78.8%.

Compound `Cc1ccc(-c2nc(C(C)(C)C)c[nH]2)cc1NC(=O)c1ccc(OCc2ccccn2)cc1` [Example 86, N-[5-(4-tert-butyl-1H-imidazol-2-yl)-2-methylphenyl]-4-(pyridin-2-ylmethoxy)benzamide] had an inhibition at 3 µM of 85.7%.

`Cc1ccc(-c2nc(C3CC3)c[nH]2)cc1NC(=O)c1ccc(OCc2ccccn2)cc1` [Example 87, N-[5-(4-cyclopropyl-1H-imidazol-2-yl)-2-methylphenyl]-4-(pyridin-2-ylmethoxy)benzamide] had an inhibition at 3 µM of 74.8%.

For `Cc1ccc(-c2nc(CO)c[nH]2)cc1NC(=O)c1ccc(OCc2ccccn2)cc1` [Example 88, N-{5-[4-(hydroxymethyl)-1H-imidazol-2-yl]-2-methylphenyl}-4-(pyridin-2-ylmethoxy)benzamide], the inhibition at 3 µM was 84.7%.

With `Cc1ccc(-c2ncc[nH]2)cc1NC(=O)c1ccc(OCc2cc(N3CCOCC3)ccn2)cc1` [Example 89, N-[5-(1H-imidazol-2-yl)-2-methylphenyl]-4-[(4-morpholin-4-ylpyridin-2-yl)methoxy]benzamide], the inhibition at 3 µM is 72.7%.

Consider `Cc1ccc(-c2ncc[nH]2)cc1NC(=O)c1ccc(OCc2cc(N3CCN(CCO)CC3)ccn2)cc1` [Example 90, 4-({4-[4-(2-hydroxyethyl)piperazin-1-yl]pyridin-2-yl}methoxy)-N-[5-(1H-imidazol-2-yl)-2-methylphenyl]benzamide], for which the inhibition at 3 µM turned out to be 61.5%.

`Cc1ccc(-c2nccn2C)cc1NC(=O)c1ccc(OCc2cc(Cl)ccn2)cc1` [Example 91, 4-[(4-chloropyridin-2-yl)methoxy]-N-[2-methyl-5-(1-methyl-1H-imidazol-2-yl)phenyl]benzamide]: 3 µM produced 80.4% inhibition.

The compound `COc1ccnc(COc2ccc(C(=O)Nc3cc(-c4ncc[nH]4)ccc3C)cc2)c1` [Example 92, N-[5-(1H-imidazol-2-yl)-2-methylphenyl]-4-[(4-methoxypyridin-2-yl)methoxy]benzamide] registered an inhibition at 3 µM of 76%.

In turn, `COc1ccnc(COc2ccc(C(=O)Nc3cc(-c4nccn4C)ccc3C)cc2)c1` [Example 93, 4-[(4-methoxypyridin-2-yl)methoxy]-N-[2-methyl-5-(1-methyl-1H-imidazol-2-yl)phenyl]benzamide] yielded an inhibition at 3 µM of 79.9%.

Compound `Cc1ccc(-c2ncc[nH]2)cc1NC(=O)c1ccc(OCc2cc(OCCN(C)C)ccn2)cc1` [Example 94, 4-({4-[2-(dimethylamino)ethoxy]pyridin-2-yl}methoxy)-N-[5-(1H-imidazol-2-yl)-2-methylphenyl]benzamide] registered an inhibition at 3 µM of 56.7%.

In the case of `Cc1ccc(-c2ncc[nH]2)cc1NC(=O)c1ccc(OCc2cc(OCCN3CCCCC3)ccn2)cc1` [Example 95, N-[5-(1H-imidazol-2-yl)-2-methylphenyl]-4-{[4-(2-piperidin-1-ylethoxy)pyridin-2-yl]methoxy}benzamide], the inhibition at 3 µM came to 47%.

Take `Cc1ccc(-c2nccn2C)cc1NC(=O)c1ccc(OCc2cc(Oc3ccccc3)ccn2)cc1` [Example 96, N-[2-methyl-5-(1-methyl-1H-imidazol-2-yl)phenyl]-4-[(4-phenoxypyridin-2-yl)methoxy]benzamide]: 3 µM produced 79.8% inhibition.

As for `CCOc1ccnc(COc2ccc(C(=O)Nc3cc(-c4nccn4C)ccc3C)cc2)c1` [Example 97, 4-[(4-ethoxypyridin-2-yl)methoxy]-N-[2-methyl-5-(1-methyl-1H-imidazol-2-yl)phenyl]benzamide], the inhibition at 3 µM stood at 81.9%.

Regarding `Cc1ccc(-c2nccn2C)cc1NC(=O)c1ccc(OCc2cc(OCC3CC3)ccn2)cc1` [Example 98, 4-{[4-(cyclopropylmethoxy)pyridin-2-yl]methoxy}-N-[2-methyl-5-(1-methyl-1H-imidazol-2-yl)phenyl]benzamide], the inhibition at 3 µM is 78.4%.

`Cc1ccc(-c2nccn2C)cc1NC(=O)c1ccc(OCc2ccc(Br)cc2C#N)cc1` [Example 99, 4-[(4-bromo-2-cyanobenzyl)oxy]-N-[2-methyl-5-(1-methyl-1H-imidazol-2-yl)phenyl]benzamide] showed an inhibition at 3 µM of 29.9%.

Consider `Cc1ccc(-c2nccn2C)cc1NC(=O)c1ccc(OCc2ccc(F)cc2C#N)cc1` [Example 100, 4-[(2-cyano-4-fluorobenzyl)oxy]-N-[2-methyl-5-(1-methyl-1H-imidazol-2-yl)phenyl]benzamide], for which testing at 3 µM gave an inhibition of 82.7%.

Consider `Cc1ccc(-c2nccn2C)cc1NC(=O)c1ccc(OCc2cc(F)ccc2C#N)cc1` [Example 101, 4-[(2-cyano-5-fluorobenzyl)oxy]-N-[2-methyl-5-(1-methyl-1H-imidazol-2-yl)phenyl]benzamide], for which the inhibition at 3 µM was 83.5%.
